# Key:
# [1] = system: carotid artery with reverse flow; assay: Superoxide measurement (L012 luminescence) in carotid arteries after in vivo reverse flow with drug treatment; set-up: species or system swine
# Text: To create a full reverse flow, and as part of an exemplary system 100 of the present disclosure, two tubes 102, such as two pieces of silicone tubing, were inserted into the two respective ends of the isolated vessel segment 104 as shown in FIGS. 1A and 1B. In at least one embodiment, tubes 102 are configured to fit within a portion of isolated vessel segment 104, and in at least another embodiment, tubes 102 are configured so surround the ends of vessel segment and are held in place with a connector (not shown). […]
# The harvested vessels (vessel segments 104) were cut into small rings at approximately 3 mm in length in 37° C. […] The L012 (100 μM) was added last and the luminescence was recorded for 60 minutes at 1 minute intervals using a plate reader from Perkin Elmer (En vision Xcite Multilabel Reader, Perkin Elmer, Shelton, Conn.) at ultra-luminecent mode. […]
# Samples were obtained from carotid arteries with forward (solid bar) or reverse (empty bar) flow (FF or RF, respectively) or reverse flow plus jasplakinolide (Jasp) treatment (lined bar). The basal level of superoxide measured under forward flow condition was taken as 100%, and all other measurements were expressed as percentage to the basal level. Each measurement was performed in triplicate and data were expressed as mean±1SD. […]
# NADPH oxidase = NADPH oxidase activity assay in subcellular membrane preparations of vessels; format: in vivo, swine
# Experimental: (§1) In some experiments (n=3), the carotid arteries were treated with jasplakinolide to stablize the actin. […] The right side vessel 114 was filled with saline and served as control. The reverse or forward flows were then ensured for 2 hrs (for superoxide measurement) or 4 hrs (for NADPH oxidase measurment by western blot) after clamps 116, 118 were released. A low concentration of jasplakinolide was used, which was sufficient to stabilize actin and to avoid possible non-specific effects at high concentration. […]
# Stored samples were placed in ice cold lysis buffer containing 20 mM KH2PO4, 1 mM EGTA and protease inhibitor cocktail (Sigma-Aldrich, St. Louis, Mo.) and homogenized with an electric homogenizer (Power Gen 35, Fisher Scientific) for 20 seconds each. […] The enzyme activity was determined in 200 μl assay buffer at pH7.4 containing the following (in mM): HEPES, 25; NaCl, 120; KCl, 5.9; MgSO4, 1.2; CaCl2, 1.75; glucose, 11; β-NADPH, 0.1; and L012, 0.1. The reaction started by adding 10 μL of homogenate, and the luminescence was measured every 15 seconds for 5 minutes by Perkin Elmer plate reader at ultra-sensitive mode. The protein concentration was determined by BCA kit (Bio-Rad) and the results of enzyme activity were standardized to protein level of each sample. […]
# carotid artery wall = assay: Superoxide in carotid artery wall by dihydroethidine fluorescence (laser confocal microscopy) after flow reversal; format: in vivo; settings: apocynin 1 mM in drinking water concurrently with carotid flow reversal; vs flow reversal without apocynin
# Experimental: The carotid arteries of animals were removed and examined by laser confocal microscopy excitation (514 nm; emission, 605 nm; Objective, 40x. C.3.a. Visualization of NO and O2-Using Fluorescence) following perfusion under conditions of: Control (C), Flow Reversal (FR), and Apocynin+Flow Reversal (AC). The apocynin was administered in drinking water (1 mM) to an animal concurrently with carotid flow reversal. Dihydroethidine (DHE), a fluorescent dye, was used to indicate superoxide in arterial wall.
# [2] = system: actin in carotid artery endothelial cells; settings: reported previously; cited from earlier work
# [3] = system: carotid artery rings (endothelial cells); assay: Superoxide measurement (L012 luminescence) in carotid artery rings treated in vitro; format: cell-based, swine
# Experimental: For superoxide measurements, carotid arteries (vessel segments 104) from both sides were quickly removed and placed into a heated (37° C.) chamber filled with HEPES buffered PSS containing (in mM): D-glucose, 5.5; KCl, 4.7; NaCl, 142; HEPES sodium salt, 2.7; MgSO4, 1.17; CaCl2, 2.79; at pH 7.4. For NADPH oxidase activity assays or protein expression measurements by western blot, the left and right carotid arteries were removed and saved in a −80° C. freezer until analysis.
# The harvested vessels (vessel segments 104) were cut into small rings at approximately 3 mm in length in 37° C. HEPES PSS buffer. The rings were first transferred into […] with HEPES-PSS and incubated at 37° C. for 5 minutes. Various compounds [cytochalason D, latrunculin B, jasplakinolide, and phorbol 2-myrisate 13-acetate (PMA)] were then added into each well for treatment. The L012 (100 μM) was added last and the luminescence was recorded for 60 minutes at 1 minute intervals using a plate reader from Perkin Elmer (En vision Xcite Multilabel Reader, Perkin Elmer, Shelton, Conn.) at ultra-luminecent mode. The total reaction volume was 200 μl. After each recording, the sample rings were air dried and weighed. Each condition was tested in triplicate. To remove the endothelial cells, the vessel ring was gently rubbed against the tip of a pair of forceps.
# Basal superoxide production was detected in the carotid artery (vessel segment 104) samples obtained from control animals with forward blood flow as shown in FIG. 2A. Rings were incubated with or without treatments of cytochalasin D (cyt D), latrunculin (Latru) or jasplakinolide (Jasp) and the superoxide production were recorded using plate reader at ultrasensitive mode for luminescence to generate the results shown in FIG. 2A. The luminescence recorded from rings without treatment was considered at base level and taken as 100%. The luminescence recorded under other conditions was expressed as percentage of base level. The superoxide production induced by PMA was used as positive control as identified in FIG. 2B. Each condition was tested in triplicate from each animal. The significance of increased superoxide production was test using ANOVA (p=0.004 for cytochalasin D, n=10 and p=0.044 for Latrucillin, n=3), and the data are mean±1SD.
# p47phox = p47phox phosphorylation (phosphoserine immunoprecipitation and western blot), in vitro; format: cell-based, swine; settings: cytochalasin D treatment in vitro; p<0.05
# Experimental: For p47^phox phosphorylation measurements, the total protein with phosphoserine was first immunoprecipitated according to a known method. Briefly, samples were first incubated with rabbit polyclonal antibody to phosphoserine (Abcam, Cambridge, Mass.) for 2 hours at 4° C. Samples were then mixed with Protein G PLUS-Agarose (Santa Cruz Biotechnology, Santa Cruz, Calif.) and incubated overnight at 4° C. Samples were then centrifuged and washed three times with lysis buffer. The pellet was resuspended in loading buffer and denatured. The p47^phox was then measured by western blot.
# P47^phox phosphorylation was examined further to understand the molecular basis for increased superoxide production subsequent to actin depolymerization and flow reversal, as shown in FIGS. 7A-7D. The phosphorylated P47^phox was standardized by total P47^phox. The level of phosphorylated P47^phox at basal level in vitro (FIG. 7A) or under forward flow (FF) condition in vivo (FIG. 7C) were taken as 100% and the level of phosphorylated P47^phox after cytochalasin D treatment or under reversed flow (RF) condition were expressed as percent thereof. […] The data are mean and SD of at least three experiments from different animals (*p<0.05).
# [4] = system: actin in carotid artery endothelial cells; assay: Actin immunostain (Alexa Fluor488-phalloidin) of carotid artery rings, in vitro actin depolymerization; format: cell-based, swine; settings: 10 μM cytochalasin D, 30 minutes, 37° C.
# Experimental: For actin staining, vessels under different conditions were cut into 4 mm rings and immediately fixed for 2 hours in 4% methanol-free formaldehyde-PBS solution (Thermo Scientific, Rockford, Ill.). For in vitro actin depolymerization immunochemistry, 3 to 4 mm carotid artery ring from control animal were incubated with 10 μM cytochalasin D for 30 minutes. Samples were fixed for 2 hours and then processed for actin staining.
# The fixed samples were permeablized by 0.1% tritonX-PBS solution. After non-specific sites were blocked by 1% BSA in PBS, actin was labled by incubating samples with Alexa Fluor488-phalloidin (Invitrogen, Carlsbad, Calif.) for 30 minutes at room temperature. After labeling, each sample was cut into a 3×3 mm piece and mounted on glass slide and covered with a glass cover slip in the presence of 70% glyceral-PBS and sealed with glue. The samples were observed under a Zeiss confocal microscope (Zeiss 510 meta) and images were captured under 100× objective oil lens with excitation at 488 nm and emission at BP 500-530 nm.
# All samples were viewed under confocal microscopy (Zeiss 510 meta) with 100× objective with excitation at 488 nm and Emission at BP 500-530 nm.
# gp91phox and p47phox = assay: Western blot for NADPH oxidase expression; format: in vivo, swine; settings: jasplakinolide, four hours of treatment
# Experimental: as §1
# The artery segments were homogenized in the lysis buffer containing 50 mM glycerophosphate, 100 μM sodium orthovanadate, 2 mM magnesium chloride, 1 mM EGTA, 0.5% Triton X-100, 1 mM DL-dithiothreitol, 20 μM pepstatin, 20 μM leupeptin, 0.1 U/ml aprotinin, and 1 mM phenylmethylsulfonyl fluoride and then incubated on ice for 1 hour. […] The total protein was measured by a BCA kit (Bio-Rad). […]
# The NADPH oxidase activity was examined using an enzyme assay in subcellular membrane prepared from vessels with different flow conditions. […] The data are expressed as ratio of enzyme activity measured in vessel from reverse flow (RF) or reverse flow with jasplakinolide (RF-Jasp) treatment vs forward flow (FF). […] The data are expressed as ratio of protein band density of reversed flow sample versus that from forward flow sample.
# [5] = system: porcine femoral artery preparation; assay: NO metabolite (nitrite) production in perfused porcine femoral artery preparation, forward and reverse flow; settings: tempol added to perfusate
# Experimental: A purfusate was passed through an in vitro porcine femoral artery preparation in the forward and reverse flow directions and the levels of NO metabolite (nitrite) were measured at various flowrates in the forward and reverse directions. Thereafter, tempol was added to the perfusate and the levels of NO metabolite (nitrite) were again measured at various flowrates in the forward and reverse directions. […] The asterisk denotes statistical significance by ANOVA analysis between groups at the respective flows (P<0.05).
smiles,measurement,setting,value
"COc1cc(C(C)=O)ccc1O [apocynin, 4-hydroxy-3-methoxy-acetophenone]",reversed flow induced superoxide production,[1]; apocynin bolus 4 mg/kg i.v. then 3.5 μg/kg/min i.v.,abolished
same,NADPH oxidase enzyme activity,NADPH oxidase; samples from animals treated with apocynin,reduced
same,amount of superoxide present in artery wall (DHE fluorescence),carotid artery wall,reduced the amount of superoxide
C=C1[C@@H](C)[C@H]2[C@H](Cc3ccccc3)NC(=O)[C@]23[C@H](OC(C)=O)/C=C/[C@@](C)(O)C(=O)[C@@H](C)C/C=C/[C@H]3[C@@H]1O [cytochalasin D],cytochalasin D concentration at which all long actin filament bundles were disrupted and replaced by focal aggregates of F-actin,[2],≥ 2 µM
same,cytochalasin D concentration at which changes of actin cytoskeleton were visible,[2],20 nM
same,increase of superoxide production vs untreated samples,"[3]; 10 μM cytochalasin D, artery samples under normal forward flow",about 5 fold
same,superoxide production in vessel with reverse flow,[3]; cytochalasin D added to samples from reverse flow vessel,further increase
same,p47phox phosphorylation vs untreated sample,p47phox,increased
same,actin filament pattern,[4],significant disruption of actin filaments
C/C1=C\[C@H](C)C[C@H](C)OC(=O)C[C@H](c2ccc(O)cc2)NC(=O)[C@@H](Cc2c(Br)[nH]c3ccccc23)N(C)C(=O)[C@H](C)NC(=O)[C@@H](C)C1 [jasplakinolide],increase of superoxide production on reversed blood flow,"[1]; vessel prefilled with 0.1 μM jasplakinolide 10 minutes, reverse flow 2 hrs",prevented
same,NADPH oxidase activity in vessel with reversed flow vs untreated vessel,NADPH oxidase; jasplakinolide treatment (0.1 μM prefill),decreased
same,superoxide level vs untreated samples,"[3]; 0.1 μM jasplakinolide, artery samples under normal forward flow",not changed
same,expression of NADPH oxidase subunits gp91phox and p47phox,gp91phox and p47phox,not changed
"C/C1=C/C(=O)O[C@@H]2C[C@@H](CC[C@H](C)/C=C\CC1)O[C@@](O)([C@@H]1CSC(=O)N1)C2 [latrunculin, latrunculin B]",increase of superoxide production vs untreated samples,"[3]; 1 μM latrunculin, artery samples under normal forward flow",~2 fold
"CC1(C)CC(O)CC(C)(C)N1[O] [tempol, 4-hydroxy-2,2,6,6-tetramethyl-4-piperidine-N-oxyl]",NO production (NO metabolite nitrite),[5]; forward flow,did not cause a statistically significant increase
same,NO production (NO metabolite nitrite),"[5]; reverse flow, P<0.05",did significantly increase

# Reference: patent publication US20130085109A1, “METHODS OF CARDIOVASCULAR PATIENT TREATMENT USING SUBSTANCES SUFFICIENT TO REDUCE ACTIN DEPOLYMERIZATION” (priority 2008, published 2013)
